Test results taken from patent US8445030B2 (priority 2009, dated 2013).
Entries after “also recorded” stand apart in the source; their conditions may differ. Read-outs that look alike come from different tables or passages of the source.

Key:
[1] = system: Microbes; experiment: Microbial efficacy and duration of effects of components; settings: component of the spray of Example 1
[2] = cited from earlier work
[3] = system: microorganisms; experiment: Antiseptic function of components in CaF2-based formulations (Examples 2-4)
[4] = same as normal skin (pH 5.4-5.5)
[5] = component of Example 3 hair gel
[6] = component of Example 2 wound gel
[7] = component of Example 4 hand disinfection spray

SMILES: O=C(O)C=Cc1ccccc1 [Cinnamic acid]
- Duration of Effects [1]: short to long
- Microbial Efficacy [1]: bactericide, virucide,; also recorded: fungicide

SMILES: O=C(O)[C@]1(O)C[C@@H](O)[C@@H](O)[C@H](O)C1 [Quinic acid]
- Microbial Efficacy [1]: bactericide, virucide,; also recorded: fungicide
- LD 50 Oral on Rats ([2]; rat, in vivo, po): >8000 mg/kg

SMILES: CC(C)O [Isopropyl alcohol]
- fast acting antiseptic action [3, 5]: log 6, fast acting

SMILES: [Ca+2].[F-].[F-] [CaF2 (calcium fluoride), calcium fluoride]
- Microbial Efficacy [1]: bactericide, virucide,; also recorded: fungicide
- persistent antiseptic action [3, 6]: log 3, persistent
- persistent antiseptic action [3, 5]: log 3, persistent
- persistent antiseptic action [3, 7]: log 3, persistent
- pH [4]: 5.4
- LD 50 Oral on Rats ([2]; oral, rats): 4500 mg/kg

SMILES: CCO [Ethanol]
- fast acting antiseptic action [3, 6]: log 6, fast acting
- fast acting antiseptic action [3, 7]: log 6, fast acting

SMILES: OO [H2O2 (hydrogen peroxide), hydrogen peroxide]
- Duration of Effects [1]: short (short = within 60 sec up to max 5 min)
- Microbial Efficacy [1]: bactericide, virucide,; also recorded: fungicide
- LD 50 Oral on Rats ([2]; rat, in vivo, po): 2000 mg/kg

SMILES: [Na+].[O-]Cl [NaOCl (Javel water), NaOCl]
- Microbial Efficacy [1]: bactericide, virucide,; also recorded: fungicide
- fast acting antiseptic action [3, 7]: log 6, fast acting
- LD 50 Oral on Rats ([2]; oral, rats): 2000 mg/kg

SMILES: O=C(O)CC(O)(CC(=O)O)C(=O)O [Citric acid]
- Microbial Efficacy [1]: bactericide, virucide,; also recorded: fungicide
